Values quoted from earlier work as cited in patent US20230226058A1, “METHODS AND COMPOSITIONS FOR TREATING ACUTE KIDNEY INJURY” (CalciMedica, Inc., priority 2020, published 2023).

Test system: AKI rats

Cc1nnsc1C(=O)Nc1ccc(-n2nc(C(F)(F)F)cc2C(F)(F)F)cc1 [YM58483/BPT2]
infiltration of total CD4+ T-cells, B-cells, and dendritic cells following I/R (AKI rats): attenuated | Total IL17 expressing cells (treated rats relative to vehicle treated rats): reduced
